Assay results: patent publication US8877741B2, “Pyrrolidine derivatives, pharmaceutical compositions and uses thereof” (Boehringer Ingelheim International GmbH, priority 2013, dated 2014)

Molecular target: human ACC2 (Homo sapiens (Human), UniProt O00763)
Assay: ACC2 assay, spectrophotometric 384 well assay (NADH-linked kinetic method)
Format: biochemical
Conditions: human ACC2 construct lacking the 128 N-terminal amino acids; coupled lactate dehydrogenase/pyruvate kinase reaction, 340 nm, 25° C.
Experimental: Spectrophotometric 384 Well Assay
Malonyl CoA formation by acetyl CoA carboxylases is stoichometrically linked to the consumption of ATP. ACC2 activity is measured in a NADH-linked kinetic method measuring ADP generated during the ACC reaction using a coupled lactate dehydrogenase/pyruvate kinase reaction.
For biological testing, a human ACC2 construct which lacks the 128 amino acids at the N-terminus for increased solubility (nt 385-6966 in Genbank entry AJ575592) is cloned. The protein is then expressed in insect cells using a baculoviral expression system. Protein purification is performed by anion exchange.
All compounds are dissolved in dimethyl sulfoxide (DMSO) to a concentration of 10 mM.
The enzymatic reaction is then started by addition of a mixture of NADH, acetyl Coenzyme A (both 2000 μM f.c.) and ATP (500 uM f.c.). The decrease of the optical density (slope S) is then determined at 25° C. at a wavelength of 340 nm over 15 minutes in a spectrophotometric reader.
Each assay microtiter plate contains wells with vehicle instead of compound as controls for the non-inhibited enzyme (100% CTL; ‘HIGH’) and wells without acetyl-CoA as controls for non-specific NADH degradation (0% CTL; ‘LOW’).
The slope S is used for calculation of % CTL=(S(compound)−S(‘LOW’))/(S(‘HIGH’)−S(‘LOW’))*100.
For IC50 value determination, the sample slope in the presence of the test compound after subtraction of the low controls (S(compound)−S(‘LOW’)) are used.
An IC50 value is derived from the compound slopes at different dosages after subtraction of the low controls (S(compound)−S(‘LOW’)) by non-linear regression curve fitting (equation y=(A+((B−A)/(1+((C/x)^D))))).

Chain of human ACC2 (O00763 129-2458): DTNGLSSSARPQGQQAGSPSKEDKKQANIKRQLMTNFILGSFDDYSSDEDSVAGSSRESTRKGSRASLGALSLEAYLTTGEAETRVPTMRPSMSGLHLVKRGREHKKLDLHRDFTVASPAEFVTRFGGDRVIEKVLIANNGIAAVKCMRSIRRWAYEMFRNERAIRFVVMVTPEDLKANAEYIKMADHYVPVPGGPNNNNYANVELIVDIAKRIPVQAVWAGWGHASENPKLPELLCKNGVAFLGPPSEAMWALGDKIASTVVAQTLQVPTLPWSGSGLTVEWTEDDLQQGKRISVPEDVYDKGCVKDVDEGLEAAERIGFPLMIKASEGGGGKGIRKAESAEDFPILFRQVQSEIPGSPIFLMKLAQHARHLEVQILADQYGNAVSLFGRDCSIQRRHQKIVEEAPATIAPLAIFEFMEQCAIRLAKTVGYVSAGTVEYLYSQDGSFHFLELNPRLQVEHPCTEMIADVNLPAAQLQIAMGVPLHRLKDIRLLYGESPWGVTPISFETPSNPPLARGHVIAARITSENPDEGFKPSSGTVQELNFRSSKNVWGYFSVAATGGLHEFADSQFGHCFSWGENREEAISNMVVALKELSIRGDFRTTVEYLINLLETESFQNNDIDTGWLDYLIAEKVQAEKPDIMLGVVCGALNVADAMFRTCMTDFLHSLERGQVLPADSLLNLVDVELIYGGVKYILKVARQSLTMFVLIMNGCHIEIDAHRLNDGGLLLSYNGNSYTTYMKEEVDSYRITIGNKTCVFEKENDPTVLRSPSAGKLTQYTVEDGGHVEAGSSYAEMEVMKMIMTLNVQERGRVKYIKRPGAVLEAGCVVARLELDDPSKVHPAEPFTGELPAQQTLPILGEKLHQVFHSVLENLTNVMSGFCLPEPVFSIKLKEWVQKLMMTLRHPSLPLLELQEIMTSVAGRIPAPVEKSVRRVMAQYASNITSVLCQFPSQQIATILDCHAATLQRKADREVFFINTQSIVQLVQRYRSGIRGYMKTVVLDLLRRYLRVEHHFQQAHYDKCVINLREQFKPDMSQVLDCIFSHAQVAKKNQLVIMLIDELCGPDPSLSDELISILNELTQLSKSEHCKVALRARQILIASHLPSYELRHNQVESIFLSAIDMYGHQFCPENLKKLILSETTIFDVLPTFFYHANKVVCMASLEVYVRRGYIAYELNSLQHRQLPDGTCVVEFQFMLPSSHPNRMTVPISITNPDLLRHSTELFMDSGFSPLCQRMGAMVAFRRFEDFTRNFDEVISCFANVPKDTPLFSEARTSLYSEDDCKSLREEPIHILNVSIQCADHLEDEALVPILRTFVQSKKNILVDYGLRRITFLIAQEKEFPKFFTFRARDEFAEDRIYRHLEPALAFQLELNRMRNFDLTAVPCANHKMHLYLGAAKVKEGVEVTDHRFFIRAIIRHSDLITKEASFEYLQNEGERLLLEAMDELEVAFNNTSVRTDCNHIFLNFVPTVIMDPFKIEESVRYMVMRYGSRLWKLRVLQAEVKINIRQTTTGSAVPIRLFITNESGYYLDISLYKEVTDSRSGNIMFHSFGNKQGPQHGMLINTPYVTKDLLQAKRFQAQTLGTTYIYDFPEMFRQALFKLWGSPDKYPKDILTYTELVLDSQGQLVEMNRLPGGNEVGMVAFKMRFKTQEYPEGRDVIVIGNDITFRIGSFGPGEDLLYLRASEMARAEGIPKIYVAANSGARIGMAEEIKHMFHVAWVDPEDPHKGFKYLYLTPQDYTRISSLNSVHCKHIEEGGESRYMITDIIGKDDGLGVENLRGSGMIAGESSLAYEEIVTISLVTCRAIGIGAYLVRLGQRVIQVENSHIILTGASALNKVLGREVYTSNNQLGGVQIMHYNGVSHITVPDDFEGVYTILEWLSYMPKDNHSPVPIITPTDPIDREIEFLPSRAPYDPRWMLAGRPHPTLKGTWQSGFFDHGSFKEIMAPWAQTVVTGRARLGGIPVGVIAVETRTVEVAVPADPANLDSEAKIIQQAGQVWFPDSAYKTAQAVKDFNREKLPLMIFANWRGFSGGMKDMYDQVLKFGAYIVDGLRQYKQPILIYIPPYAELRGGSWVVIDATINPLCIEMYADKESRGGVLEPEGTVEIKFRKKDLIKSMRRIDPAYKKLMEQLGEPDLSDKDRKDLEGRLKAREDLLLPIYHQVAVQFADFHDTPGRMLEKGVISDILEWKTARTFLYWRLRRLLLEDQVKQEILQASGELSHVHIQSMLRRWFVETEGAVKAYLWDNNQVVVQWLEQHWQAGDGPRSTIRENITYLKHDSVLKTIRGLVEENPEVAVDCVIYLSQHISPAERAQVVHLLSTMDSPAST

Structure (SMILES) | IC50
CC(=O)N[C@@H](C)c1ccc(O[C@@H]2CCN(c3ccnc(OCC(C)(F)F)c3F)C2)cc1 [Example 9.85] | 58 nM
CC(C)Oc1cc(N2CCC(Oc3ccc([C@H](C)NC(=O)C(C)(F)F)cc3)C2)ccn1 (some centres unmarked) [Example 2.29] | 267 nM
Cc1cc(CC(=O)N[C@@H](C)c2ccc(OC3CCN(c4ccnc(OCC(F)F)c4)C3)cc2)on1 (some centres unmarked) [Example 2.100] | 624 nM
CCCOc1nccc(N2CC[C@@H](Oc3ccc([C@H](C)NC(C)=O)cc3)C2)c1C [Example 9.55] | 59 nM
CC(C)Oc1cc(N2CCC(Oc3ccc([C@H](C)NC(=O)c4cn[nH]c4)cc3)C2)ccn1 (some centres unmarked) [Example 2.8] | 65 nM
COc1c(N2CC[C@@H](Oc3ccc([C@H](C)NC(C)=O)cc3)C2)ccnc1OCC1CC1 [Example 1.127] | 31 nM
CCN(C)c1cc(N2CC[C@@H](Oc3ccc([C@H](C)NC(C)=O)cc3)C2)c(F)cn1 [Example 10.23] | 87 nM
CC(=O)N[C@@H](C)c1ccc(O[C@@H]2CCN(c3ccnc(OC4Cc5ccccc5C4)c3)C2)cc1 [Example 9.13] | 230 nM
CC(=O)N[C@@H](C)c1ccc(O[C@@H]2CCN(c3ccnc(OCC(C)O)c3F)C2)cc1 (some centres unmarked) [Example 9.74] | 220 nM
CC(=O)N[C@@H](C)c1ccc(O[C@@H]2CCN(c3ccnc(OCc4cccc(F)c4)c3)C2)cc1 [Example 9.21] | 477 nM
CC(=O)N[C@@H](C)c1ccc(O[C@@H]2CCN(c3ccnc(N4CCC4)c3C)C2)cc1 [Example 1.126] | 597 nM
CC(C)Oc1cc(N2CCC(Oc3ccc([C@H](C)NC(=O)C4(C(F)(F)F)CC4)cc3)C2)ccn1 (some centres unmarked) [Example 2.17] | 607 nM
CC(=O)N[C@@H](C)c1ccc(O[C@@H]2CCN(c3cccc(N4CCOC(C)(C)C4)n3)C2)cc1 [Example 10.38] | 369 nM
CCCOc1nccc(N2CC[C@@H](Oc3ccc([C@H](C)NC(C)=O)cc3)C2)c1F [Example 9.53] | 40 nM
CC(=O)N[C@@H](C)c1ccc(O[C@@H]2CCN(c3ccc(OC[C@H]4CC4(F)F)cn3)C2)cc1 [Example 1.118] | 39 nM
C[C@H](NC(=O)N(C)C)c1ccc(OC2CCN(c3ccnc(OCC(F)F)c3)C2)cc1 (some centres unmarked) [Example 3.17] | 138 nM
CC(=O)N[C@@H](C)c1ccc(OC2CCN(c3cc(OC(C)C)ncc3F)C2)cc1 (some centres unmarked) [Example 1.74] | 100 nM
CC(=O)N[C@@H](C)c1ccc(O[C@@H]2CCN(c3ccnc(N4CCC(C)(O)C4)c3F)C2)cc1 (some centres unmarked) [Example 10.52] | 80 nM
CC(=O)N[C@@H](C)c1ccc(OC2CCN(c3ccc(OCCC(F)F)cn3)C2)cc1 (some centres unmarked) [Example 1.93] | 107 nM
COCCN(C)C(=O)N[C@@H](C)c1ccc(OC2CCN(c3ccc(OCC4CC4(F)F)cn3)C2)cc1 (some centres unmarked) [Example 3.7] | 444 nM
CC(=O)N[C@@H](C)c1ccc(O[C@@H]2CCN(c3nccc(OCC4CC4)c3F)C2)cc1 [Example 9.67] | 146 nM
CC(=O)N[C@@H](C)c1ccc(O[C@@H]2CCN(c3ccnc(N4CCC(F)(F)C4)c3C)C2)cc1 [Example 1.124] | 76 nM

Structure (SMILES) | IC50
CC(=O)N[C@@H](C)c1ccc(OC2CCN(c3cccc(C4CC4)n3)C2)cc1 (some centres unmarked) [Example 1.38] | 95 nM
Cc1oncc1C(=O)N[C@@H](C)c1ccc(OC2CCN(c3ccnc(OC(C)C)c3)C2)cc1 (some centres unmarked) [Example 2.58] | 69 nM
C[C@H](NC(=O)CC#N)c1ccc(OC2CCN(c3ccc(OCC4CC4(F)F)cn3)C2)cc1 (some centres unmarked) [Example 2.119] | 235 nM
COc1c(N2CC[C@@H](Oc3ccc([C@H](C)NC(C)=O)cc3)C2)ccnc1OCC(C)(C)OC [Example 1.149] | 156 nM
CC(=O)N[C@@H](C)c1ccc(OC2CCN(c3cccc(C)n3)C2)cc1 (some centres unmarked) [Example 1.18] | 167 nM
COC1CCN(c2cccc(N3CC[C@@H](Oc4ccc([C@H](C)NC(C)=O)cc4)C3)n2)CC1 [Example 10.42] | 759 nM
CC(=O)N[C@@H](C)c1ccc(O[C@@H]2CCN(c3ccnc(OCC4CC(F)(F)C4)c3)C2)cc1 [Example 9.61] | 65 nM
CC(=O)N[C@@H](C)c1ccc(OC2CCN(c3ncc(OCC(F)(F)F)cc3F)C2)cc1 (some centres unmarked) [Example 1.33] | 504 nM
C[C@H](NC(=O)C1CCC1)c1ccc(OC2CCN(c3cccc(C(F)(F)F)n3)C2)cc1 (some centres unmarked) [Example 2.48] | 891 nM
CO[C@@H]1CN(c2cccc(C(F)(F)F)n2)C[C@@H]1Oc1ccc([C@H](C)NC(C)=O)cc1 [Example 8.9] | 105 nM
CC#CCOc1cc(N2CC[C@@H](Oc3ccc([C@H](C)NC(C)=O)cc3)C2)ccn1 [Example 9.8] | 268 nM
CC(=O)N[C@@H](C)c1ccc(O[C@@H]2CCN(c3ccnc(OCC(F)F)c3)C2)cc1 [Example 9.31] | 90 nM
CCC(=O)Nc1nc(C)c(C(=O)N[C@@H](C)c2ccc(O[C@@H]3CCN(c4ccc(OC[C@H]5CC5(F)F)cn4)C3)cc2)s1 [Example 1.144] | 93 nM
CCOc1cc(N2CCC(Oc3ccc([C@H](C)NC(C)=O)cc3)C2)c(F)cn1 (some centres unmarked) [Example 1.30] | 117 nM
CC(C)Oc1cc(N2CCC(Oc3ccc([C@H](C)NC(=O)c4ccon4)cc3)C2)ccn1 (some centres unmarked) [Example 2.28] | 512 nM
CCN(C)c1ccnc(N2CC[C@@H](Oc3ccc([C@H](C)NC(C)=O)cc3)C2)c1F [Example 1.97] | 970 nM
C[C@H](NC(=O)c1cnn(C)c1)c1ccc(OC2CCN(c3ccnc(OCC4CC4)c3)C2)cc1 (some centres unmarked) [Example 2.77] | 69 nM
Cc1cc(CC(=O)N[C@@H](C)c2ccc(OC3CCN(c4ccnc(OCC5CC5)c4)C3)cc2)on1 (some centres unmarked) [Example 2.87] | 270 nM
CC(=O)N[C@@H](C)c1ccc(O[C@@H]2CCN(c3ccnc(OC4CCCC4)c3Cl)C2)cc1 [Example 9.81] | 53 nM
CCNc1cccc(N2CC[C@@H](Oc3ccc([C@H](C)NC(C)=O)cc3)C2)n1 [Example 10.12] | 691 nM
CC(C)Oc1cc(N2CCC(Oc3ccc([C@H](C)NC(=O)C4CC4)cc3)C2)ccn1 (some centres unmarked) [Example 2.3] | 149 nM
C[C@H](NC(=O)CCC#N)c1ccc(OC2CCN(c3cccc(C(F)(F)F)n3)C2)cc1 (some centres unmarked) [Example 2.42] | 675 nM

Structure (SMILES) | IC50
C[C@H](NC(=O)C1(C#N)CC1)c1ccc(OC2CCN(c3ccnc(OCC4CC4)c3)C2)cc1 (some centres unmarked) [Example 2.65] | 85 nM
C[C@H](NC(=O)c1cn[nH]c1)c1ccc(OC2CCN(c3ccc(OC[C@H]4CC4(F)F)cn3)C2)cc1 (some centres unmarked) [Example 2.93] | 40 nM
CC(=O)N[C@@H](C)c1ccc(O[C@@H]2CCN(c3ccnc(OCC4CC4(F)F)c3Cl)C2)cc1 (some centres unmarked) [Example 9.71] | 45 nM
CC(=O)N[C@@H](C)c1ccc(O[C@@H]2CCN(c3cccc(N4CCC(F)(F)CC4)n3)C2)cc1 [Example 10.34] | 464 nM
CCOc1cc(N2CC[C@@H](Oc3ccc([C@H](C)NC(=O)c4sc(NC(C)=O)nc4C)cc3)C2)ccn1 [Example 1.47] | 120 nM
CCCOc1ccnc(N2CC[C@@H](Oc3ccc([C@H](C)NC(C)=O)cc3)C2)c1F [Example 9.68] | 251 nM
CC(C#N)C(=O)N[C@@H](C)c1ccc(OC2CCN(c3ccnc(OCC(F)F)c3)C2)cc1 (some centres unmarked) [Example 2.104] | 658 nM
CCCOc1ccc(N2CC[C@@H](Oc3ccc([C@H](C)NC(C)=O)cc3)C2)c(OC)n1 [Example 1.130] | 233 nM
CCN(CCO)c1cccc(N2CC[C@@H](Oc3ccc([C@H](C)NC(C)=O)cc3)C2)n1 [Example 10.43] | 770 nM
COc1c(N2CC[C@@H](Oc3ccc([C@H](C)NC(C)=O)cc3)C2)ccnc1N1CCC(F)(F)C1 [Example 1.146] | 109 nM
CCOc1ccc(N2CCC(Oc3ccc([C@H](C)NC(C)=O)cc3)C2)cn1 (some centres unmarked) [Example 1.5] | 510 nM
C[C@H](NC(=O)c1cncs1)c1ccc(OC2CCN(c3ccnc(N4CCC(F)(F)C4)c3F)C2)cc1 (some centres unmarked) [Example 2.125] | 60 nM
C[C@H](NC(=O)c1ccnnc1)c1ccc(OC2CCN(c3ccnc(OCC4CC4)c3)C2)cc1 (some centres unmarked) [Example 2.88] | 278 nM
CC(C#N)C(=O)N[C@@H](C)c1ccc(OC2CCN(c3ccnc(OCC4CC4)c3)C2)cc1 (some centres unmarked) [Example 2.83] | 210 nM
C[C@H](NC(=O)CO)c1ccc(OC2CCN(c3cccc(C(F)(F)F)n3)C2)cc1 (some centres unmarked) [Example 6.2] | 614 nM
CCCOc1cnc(N2CC[C@@H](Oc3ccc([C@H](C)NC(=O)c4sc(NC(C)=O)nc4C)cc3)C2)c(F)c1 [Example 1.48] | 352 nM
CC(=O)N[C@@H](C)c1ccc(O[C@@H]2CCN(c3ccnc(N(C)CC(F)F)c3F)C2)cc1 [Example 1.108] | 42 nM
C[C@H](NC(=O)C1CC1)c1ccc(O[C@@H]2CCN(c3ccnc(O[C@@H]4CCOC4)c3)C2)cc1 [Example 9.43] | 184 nM
CC(=O)N[C@@H](C)c1ccc(OC2CCN(c3ccnc(OCC4CC4)c3)C2)cc1 (some centres unmarked) [Example 1.15] | 60 nM
CCC(=O)N[C@@H](C)c1ccc(OC2CCN(c3ccnc(OC(C)C)c3)C2)cc1 (some centres unmarked) [Example 2.30] | 455 nM
CC(=O)N[C@@H](C)c1ccc(OC2CCN(c3ncc(OC4CCCC4)cc3F)C2)cc1 (some centres unmarked) [Example 1.32] | 50 nM
